# Test results: patent US7531482B2, “Thieno-pyrimidine compounds having fungicidal activity” (Dow AgroSciences LLC, priority 2005, dated 2009)
# Read-outs that look alike come from different tables or passages of the source.
# Legend:
# Format in all cases: in vivo
# [1] = tested on: Magnaporthe grisea=Pyricularia oryzae; test: whole plant or invertebrate; conditions: Pyricularia oryzae, foliar; for pest or weed control at 200 ppm: read-out: PYRIOR disease control, 200 ppm applied to foliage of rice, inoculated one day after treatment; for pest or weed control at 8.3 ppm: read-out: PYRIOR disease control, 8.3 ppm (footnote c), rice foliage
# [2] = tested on: Colletotricum lagenarium; test: Cucumber Anthracnose (COLLLA) whole-plant disease control test; conditions: Cucumis sativus, foliar; for pest or weed control at 200 ppm: read-out: COLLLA disease control
# [3] = tested on: Erysiphe cichoracaerum; test: Cucumber Powdery Mildew (ERYSCI) whole-plant disease control test; conditions: Erysiphe, foliar; for pest or weed control at 200 ppm: read-out: ERYSCI disease control
# [4] = tested on: Leptosphaeria nodorum; test: Glume Blotch of Wheat (LEPTNO) whole-plant disease control test; conditions: Parastagonospora nodorum, foliar; for pest or weed control at 200 ppm: read-out: LEPTNO disease control; for pest or weed control at 75 ppm: 75 ppm (footnote b), wheat foliage
# [5] = tested on: Phytophthora infestans; test: whole plant or invertebrate; conditions: Phytophthora infestans, in Solanum lycopersicum, foliar; for pest or weed control at 200 ppm: read-out: PHYTIN disease control, 200 ppm applied to foliage of tomato, inoculated one day after treatment
# [6] = tested on: Puccinia recondita tritici; test: Leaf Rust of Wheat (PUCCRT) whole-plant disease control test; conditions: Puccinia recondita, foliar; for pest or weed control at 200 ppm: read-out: PUCCRT disease control
# [7] = tested on: Mycosphaerella graminicola=Septoria tritici; test: Speckled Leaf Blotch of Wheat (SEPTTR) whole-plant disease control test; conditions: Mycosphaerella, foliar, read-out: SEPTTR disease control
# [8] = 200 ppm applied to foliage of cucumber, inoculated one day after treatment
# [9] = 200 ppm applied to foliage of wheat, inoculated one day after treatment
# [10] = 75 ppm applied to foliage of wheat
# [11] = 100 ppm (footnote a), cucumber foliage
SMILES,pest or weed control at 200 ppm [1] [%],"pest or weed control at 200 ppm [2, 8] [%]","pest or weed control at 200 ppm [3, 8] [%]","pest or weed control at 200 ppm [4, 9] [%]",pest or weed control at 200 ppm [5] [%],"pest or weed control at 200 ppm [6, 9] [%]","pest or weed control at 75 ppm [7, 10] [%]",pest or weed control at 8.3 ppm [1] [%],pest or weed control at 75 ppm [4] [%],"pest or weed control at 100 ppm [2, 11] [%]","pest or weed control at 100 ppm [3, 11] [%]","pest or weed control at 100 ppm ([5]; read-out: PHYTIN disease control, 100 ppm (footnote a), tomato foliage) [%]","pest or weed control at 8.3 ppm ([6]; 8.3 ppm (footnote c), wheat foliage) [%]",pest or weed control at 200 ppm [2] [%],pest or weed control at 200 ppm [3] [%],pest or weed control at 200 ppm [4] [%],pest or weed control at 200 ppm [6] [%],pest or weed control at 75 ppm [7] [%]
N#Cc1ccnc(Oc2ccc(CCNc3ncnc4sccc34)cc2)c1 [Compound 53],80 to 100,80 to 100,50 to 79,50 to 79,80 to 100,80 to 100,50 to 79,,,,,,,,,,,
COc1nsc(Oc2ccc(CCNc3ncnc4scc(Cl)c34)cc2)n1 [Compound 122],,50 to 79,80 to 100,,50 to 79,80 to 100,50 to 79,80 to 100,0 to 49,,,,,,,,,
N#Cc1nc(Oc2ccc(CCNc3ncnc4scc(Cl)c34)cc2)ccc1Cl [Compound 59],80 to 100,80 to 100,50 to 79,0 to 49,0 to 49,80 to 100,0 to 49,,,,,,,,,,,
"CN(C)NC(=O)c1ccc(Oc2ccc(CCNc3ncnc4scc(Cl)c34)cc2)nc1 [Compound 33, 6-{4-[2-(5-Chlorothieno[2,3-d]pyrimidin-4-ylamino)ethyl]phenoxy}nicotinic acid N′,N′-dimethylhydrazide]",80 to 100,50 to 79,0 to 49,0 to 49,50 to 79,80 to 100,0 to 49,,,,,,,,,,,
CC(=O)c1cnc(Oc2ccc(CCNc3ncnc4scc(Cl)c34)cc2)s1 [Compound 46],50 to 79,0 to 49,0 to 49,0 to 49,0 to 49,80 to 100,50 to 79,,,,,,,,,,,
N#Cc1ccnc(Oc2ccc(CCNc3ncnc4scc(Br)c34)cc2)c1 [Compound 47],,,,,,,50 to 79,80 to 100,80 to 100,0 to 49,80 to 100,0 to 49,80 to 100,,,,,
N#Cc1cc[n+]([O-])c(Oc2ccc(CCNc3ncnc4scc(Cl)c34)cc2)c1 [Compound 22],80 to 100,50 to 79,50 to 79,50 to 79,50 to 79,80 to 100,0 to 49,,,,,,,,,,,
N#Cc1ncc(Oc2ccc(CCNc3ncnc4scc(Cl)c34)cc2)cc1F [Compound 30],80 to 100,80 to 100,50 to 79,0 to 49,50 to 79,80 to 100,50 to 79,,,,,,,,,,,
N#Cc1ccnc(Oc2ccc(CCNc3ncnc4scc(Cl)c34)cc2)c1 [Compound 13],80 to 100,50 to 79,80 to 100,80 to 100,50 to 79,80 to 100,50 to 79,,,,,,,,,,,
N#Cc1ncc(F)cc1Oc1ccc(CCNc2ncnc3scc(Cl)c23)cc1 [Compound 29],50 to 79,50 to 79,0 to 49,0 to 49,0 to 49,80 to 100,50 to 79,,,,,,,,,,,
N#Cc1ccnc(Oc2ccc(CCNc3ncnc4scc(Cl)c34)cc2)n1 [Compound 41],80 to 100,0 to 49,50 to 79,0 to 49,80 to 100,80 to 100,0 to 49,,,,,,,,,,,
NC(=O)c1ccc(Oc2ccc(CCNc3ncnc4scc(Cl)c34)cc2)nc1 [Compound 21],0 to 49,0 to 49,0 to 49,0 to 49,0 to 49,80 to 100,0 to 49,,,,,,,,,,,
N#Cc1ncc(Oc2ccc(CCNc3ncnc4scc(Cl)c34)cc2)cn1 [Compound 40],80 to 100,0 to 49,50 to 79,0 to 49,80 to 100,80 to 100,0 to 49,,,,,,,,,,,
Clc1csc2ncnc(NCCc3ccc(Oc4ncnc5sccc45)cc3)c12 [Compound 54],80 to 100,80 to 100,50 to 79,50 to 79,80 to 100,80 to 100,0 to 49,,,,,,,,,,,
Cc1nnsc1Oc1ccc(CCNc2ncnc3scc(Cl)c23)cc1 [Compound 114],80 to 100,50 to 79,80 to 100,50 to 79,80 to 100,80 to 100,50 to 79,,,,,,,,,,,
N#CCc1cccc(Oc2ccc(CCNc3ncnc4scc(Cl)c34)cc2)n1 [Compound 97],80 to 100,,,,80 to 100,,,,,,,,,50 to 79,0 to 49,80 to 100,80 to 100,50 to 79
CCOC(=O)c1ccc(Oc2ccc(CCNc3ncnc4scc(Cl)c34)cc2)nc1 [Compound 23],50 to 79,0 to 49,0 to 49,0 to 49,50 to 79,80 to 100,0 to 49,,,,,,,,,,,
Clc1nsc(Oc2ccc(CCNc3ncnc4scc(Cl)c34)cc2)n1 [Compound 120],,0 to 49,0 to 49,,50 to 79,80 to 100,0 to 49,50 to 79,0 to 49,,,,,,,,,
c1csc(Oc2ccc(CCNc3ncnc4sccc34)cc2)n1 [Compound 49],80 to 100,50 to 79,80 to 100,50 to 79,80 to 100,80 to 100,50 to 79,,,,,,,,,,,
CC(=O)c1ccc(Oc2ccc(CCNc3ncnc4scc(Cl)c34)cc2)nc1 [Compound 39],80 to 100,0 to 49,50 to 79,0 to 49,80 to 100,80 to 100,0 to 49,,,,,,,,,,,
"FC(F)(F)c1ccc(Oc2cccc(CCNc3ncnc4scc(Cl)c34)c2)nc1 [Compound 67, (5-Chlorothieno[2,3-d]pyrimidin-4-yl)-{2-[3-(5-trifluoromethylpyridin-2-yloxy)phenyl]ethyl}amine]",80 to 100,0 to 49,50 to 79,50 to 79,50 to 79,80 to 100,80 to 100,,,,,,,,,,,
FC(F)(F)c1ncccc1Oc1ccc(CCNc2ncnc3scc(Cl)c23)cc1 [Compound 78],80 to 100,50 to 79,80 to 100,80 to 100,50 to 79,80 to 100,50 to 79,,,,,,,,,,,
Clc1ccc(COc2ccc(CCNc3ncnc4scc(Cl)c34)cc2)cn1 [Compound 104],80 to 100,50 to 79,0 to 49,0 to 49,0 to 49,80 to 100,50 to 79,,,,,,,,,,,
CS(=O)(=O)c1cc(Oc2ccc(CCNc3ncnc4scc(Cl)c34)cc2)ccn1 [Compound 95],80 to 100,50 to 79,0 to 49,80 to 100,80 to 100,80 to 100,50 to 79,,,,,,,,,,,
FC(F)(F)c1ccnc(Oc2cccc(CCNc3ncnc4scc(Cl)c34)c2)c1 [Compound 69],80 to 100,0 to 49,50 to 79,0 to 49,0 to 49,80 to 100,50 to 79,,,,,,,,,,,
